Data: PubChem BioAssay (NCI)
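Each compound was tested at five concentrations against cells in 96-well plates for 48 hours. The concentration for full growth arrest is given as TGI.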

Legend:
Assay in all cases: NCI-60 cell line screen, 48 h
SF-539 CNS = tested on: SF-539 CNS
HS 578T breast = tested on: HS 578T breast
CAKI-1 renal = tested on: CAKI-1 renal
SK-MEL-5 melanoma = tested on: SK-MEL-5 melanoma
BT-549 breast = tested on: BT-549 breast
MALME-3M melanoma = tested on: MALME-3M melanoma
HT29 colon = tested on: HT29 colon
COLO 205 colon = tested on: COLO 205 colon
UACC-257 melanoma = tested on: UACC-257 melanoma
A498 renal = tested on: A498 renal
T-47D breast = tested on: T-47D breast
LOX IMVI melanoma = tested on: LOX IMVI melanoma
IGROV1 ovarian = tested on: IGROV1 ovarian
NCI/ADR-RES ovarian = tested on: NCI/ADR-RES ovarian
UACC-62 melanoma = tested on: UACC-62 melanoma
SNB-19 CNS = tested on: SNB-19 CNS
DU-145 prostate = tested on: DU-145 prostate
SR leukemia = tested on: SR leukemia
NCI-H226 lung = tested on: NCI-H226 lung
MCF7 breast = tested on: MCF7 breast
786-0 renal = tested on: 786-0 renal
UO-31 renal = tested on: UO-31 renal
PC-3 prostate = tested on: PC-3 prostate
SF-268 CNS = tested on: SF-268 CNS
KM12 colon = tested on: KM12 colon
SK-MEL-28 melanoma = tested on: SK-MEL-28 melanoma
MDA-MB-231 breast = tested on: MDA-MB-231 breast
EKVX NSCLC = tested on: EKVX NSCLC
M14 melanoma = tested on: M14 melanoma
MDA-N = tested on: MDA-N
RPMI-8226 leukemia = tested on: RPMI-8226 leukemia
SK-MEL-2 melanoma = tested on: SK-MEL-2 melanoma
CCRF-CEM leukemia = tested on: CCRF-CEM leukemia
HL-60(TB) leukemia = tested on: HL-60(TB) leukemia
SF-295 CNS = tested on: SF-295 CNS
RXF 393 renal = tested on: RXF 393 renal
SK-OV-3 ovarian = tested on: SK-OV-3 ovarian
SN12C renal = tested on: SN12C renal
HCT-116 colon = tested on: HCT-116 colon
OVCAR-3 ovarian = tested on: OVCAR-3 ovarian
TK-10 renal = tested on: TK-10 renal
OVCAR-5 ovarian = tested on: OVCAR-5 ovarian
NCI-H23 lung = tested on: NCI-H23 lung
NCI-H460 lung = tested on: NCI-H460 lung
ACHN renal = tested on: ACHN renal
SW-620 colon = tested on: SW-620 colon
HCT-15 colon = tested on: HCT-15 colon
MOLT-4 leukemia = tested on: MOLT-4 leukemia
OVCAR-8 ovarian = tested on: OVCAR-8 ovarian
MDA-MB-435 = tested on: MDA-MB-435
K-562 leukemia = tested on: K-562 leukemia
U251 CNS = tested on: U251 CNS

O=C(c1cccs1)N(C(=S)OCc1ccccn1)c1ccccc1
TGI (SF-539 CNS): > 100 µM
TGI (HS 578T breast): > 100 µM
TGI (CAKI-1 renal): > 100 µM
TGI (SK-MEL-5 melanoma): > 100 µM
TGI (BT-549 breast): > 100 µM
TGI (MALME-3M melanoma): 44 µM
TGI (HT29 colon): > 100 µM
TGI (COLO 205 colon): > 100 µM
TGI (UACC-257 melanoma): > 100 µM
TGI (A498 renal): > 100 µM
TGI (T-47D breast): > 100 µM
TGI (LOX IMVI melanoma): > 100 µM
TGI (IGROV1 ovarian): > 100 µM
TGI (NCI/ADR-RES ovarian): > 100 µM
TGI (UACC-62 melanoma): > 100 µM
TGI (SNB-19 CNS): > 100 µM
TGI (DU-145 prostate): > 100 µM
TGI (SR leukemia): > 100 µM
TGI (NCI-H226 lung): > 100 µM
TGI (MCF7 breast): > 100 µM
TGI (786-0 renal): > 100 µM
TGI (UO-31 renal): 96.7 µM
TGI (PC-3 prostate): > 100 µM
TGI (SF-268 CNS): > 100 µM
TGI (KM12 colon): > 100 µM
TGI (SK-MEL-28 melanoma): > 100 µM
TGI (MDA-MB-231 breast): > 100 µM
TGI (EKVX NSCLC): 70 µM
TGI (M14 melanoma): > 100 µM
TGI (MDA-N): > 100 µM
TGI (RPMI-8226 leukemia): > 100 µM
TGI (SK-MEL-2 melanoma): > 100 µM
TGI (CCRF-CEM leukemia): > 100 µM
TGI (HL-60(TB) leukemia): > 100 µM
TGI (SF-295 CNS): > 100 µM
TGI (RXF 393 renal): > 100 µM
TGI (SK-OV-3 ovarian): > 100 µM
TGI (SN12C renal): > 100 µM
TGI (HCT-116 colon): > 100 µM
TGI (OVCAR-3 ovarian): > 100 µM
TGI (TK-10 renal): > 100 µM
TGI (OVCAR-5 ovarian): > 100 µM
TGI (NCI-H23 lung): > 100 µM
TGI (NCI-H460 lung): > 100 µM
TGI (ACHN renal): > 100 µM
TGI (SW-620 colon): > 100 µM
TGI (HCT-15 colon): > 100 µM
TGI (MOLT-4 leukemia): > 100 µM
TGI (OVCAR-8 ovarian): > 100 µM
TGI (MDA-MB-435): > 100 µM
TGI (K-562 leukemia): > 100 µM
TGI (U251 CNS): > 100 µM
